Experimental data reported in the NIST ThermoML archive (doi:10.1021/je100825b).
± gives the expanded uncertainty stated by the source.

Conditions: Liquid, Drop weight

Q: What does the source list for `N#N` [nitrogen] + CCCCCCC?
A: interfacial tension (323.2 K, 100 kPa): 17.6 ± 0.2 mN/m; interfacial tension (323.2 K, 3400 kPa): 16 ± 0.2 mN/m; interfacial tension (323.2 K, 6900 kPa): 13.7 ± 0.2 mN/m; interfacial tension (323.2 K, 10400 kPa): 12 ± 0.1 mN/m

Q: For `CCCCCCC` [heptane] + O=C=O, which interfacial tension (323 K, 100 kPa) is on record?
A: The interfacial tension was 16.8 ± 0.2 mN/m.

Q: And the interfacial tension (323 K, 3100 kPa)?
A: The interfacial tension was 10.1 ± 0.2 mN/m.

Q: And the interfacial tension (323 K, 4500 kPa)?
A: Its interfacial tension is 7.8 ± 0.2 mN/m.

Q: What about the interfacial tension (323 K, 5500 kPa) of the same molecule?
A: The interfacial tension was 5.7 ± 0.1 mN/m.

Q: What about the interfacial tension (323 K, 7900 kPa) of the same molecule?
A: The interfacial tension was 1.5 ± 0.08 mN/m.

Q: And the interfacial tension (323 K, 9300 kPa)?
A: Its interfacial tension is 0.11 ± 0.03 mN/m.

Q: What about the interfacial tension (353 K, 100 kPa) of the same molecule?
A: Its interfacial tension is 13.6 ± 0.2 mN/m.

Q: And the interfacial tension (353 K, 2100 kPa)?
A: The interfacial tension was 10.6 ± 0.2 mN/m.

Q: And the interfacial tension (353 K, 4000 kPa)?
A: Its interfacial tension is 7.8 ± 0.2 mN/m.

Q: And the interfacial tension (353 K, 5600 kPa)?
A: The interfacial tension was 6.1 ± 0.2 mN/m.

Q: What about the interfacial tension (353 K, 6900 kPa) of the same molecule?
A: The interfacial tension was 4.7 ± 0.1 mN/m.

Q: And the interfacial tension (353 K, 8500 kPa)?
A: Its interfacial tension is 2.9 ± 0.1 mN/m.

Q: And the interfacial tension (353 K, 10300 kPa)?
A: Its interfacial tension is 0.8 ± 0.05 mN/m.

Q: What about the interfacial tension (353 K, 11200 kPa) of the same molecule?
A: Its interfacial tension is 0.2 ± 0.02 mN/m.

Q: With `C` [methane] + CCCCCCC as the molecule, how does the interfacial tension (298.2 K, 100 kPa) read?
A: Its interfacial tension is 19.8 ± 0.2 mN/m.

Q: And the interfacial tension (298.2 K, 2000 kPa)?
A: Its interfacial tension is 16.5 ± 0.2 mN/m.

Q: And the interfacial tension (298.2 K, 3000 kPa)?
A: The interfacial tension was 15 ± 0.2 mN/m.

Q: What about the interfacial tension (298.2 K, 4000 kPa) of the same molecule?
A: Its interfacial tension is 13.4 ± 0.2 mN/m.

Q: What about the interfacial tension (298.2 K, 6000 kPa) of the same molecule?
A: The interfacial tension was 10.1 ± 0.2 mN/m.

Q: What about the interfacial tension (298.2 K, 8000 kPa) of the same molecule?
A: Its interfacial tension is 7.9 ± 0.2 mN/m.

Q: What about the interfacial tension (298.2 K, 15000 kPa) of the same molecule?
A: The interfacial tension was 2.3 ± 0.1 mN/m.
